# Experimental data: patent publication US9522914B2, “Azole derivative” (TAISHO PHARMACEUTICAL CO., LTD, priority 2011, dated 2016)
# Target: Human V1b receptor (Homo sapiens (Human), UniProt P47901)
# Test: Binding Test for V1b Receptor ([3H]AVP, crude membrane preparation of 293FT cells)
# Conditions: inhibition of [3H]AVP binding (0.4 to 1 nmol/L), room temperature, 60 minutes
# Protocol: Binding Test for V1b Receptor
# Human V1b receptor was transiently expressed in 293FT cells (Invitrogen). The cells were collected and then homogenated in a 15 mmol/L tris-hydrochloric acid buffer (pH 7.4 and containing 2 mmol/L magnesium chloride, 0.3 mmol/L ethylenediaminetetracetic acid, and 1 mmol/L glycol ether diaminetetraacetic acid). The resulting homogenate was centrifuged at 50,000×g at 4° C. for 20 minutes. The precipitate was resuspended in a 75 mmol/L tris-hydrochloric acid buffer (pH 7.4 and containing 12.5 mmol/L magnesium chloride, 0.3 mmol/L ethylenediaminetetracetic acid, 1 mmol/L glycol ether diaminetetraacetic acid, and 250 mmol/L sucrose) to give a crude membrane preparation, which was stored at −80° C. until the binding test was initiated. In the binding test, the crude membrane preparation was diluted with a 50 mmol/L tris-hydrochloric acid buffer (pH 7.4 and containing 10 mmol/L magnesium chloride and 0.1% bovine serum albumin) and mixed with each test compound and [^3H]AVP (final concentration: 0.4 to 1 nmol/L), followed by incubation at room temperature for 60 minutes. The test compound was serially diluted with DMSO so that it would have final concentrations of 0.01 nmol/L to 1 μmol/L at the time of mixing. After the incubation, the mixture was suction filtered through a GF/C filter that was preliminarily impregnated with 0.3% polyethyleneimine. The GF/C filter was dried and after adding a scintillator, the residual radioactivity on the filter was measured using TopCount (PerkinElmer Inc.). The radioactivity in the presence of unlabeled AVP at […] was defined as 0%, and the radioactivity in the absence of unlabeled AVP was defined as 100%. A dose-response curve was plotted from radio activities in the presence of a test compound at various concentrations, and the 50% inhibitory concentration (IC50 value) of the test compound was calculated.
# Human V1b receptor, sequence (P47901 whole entry): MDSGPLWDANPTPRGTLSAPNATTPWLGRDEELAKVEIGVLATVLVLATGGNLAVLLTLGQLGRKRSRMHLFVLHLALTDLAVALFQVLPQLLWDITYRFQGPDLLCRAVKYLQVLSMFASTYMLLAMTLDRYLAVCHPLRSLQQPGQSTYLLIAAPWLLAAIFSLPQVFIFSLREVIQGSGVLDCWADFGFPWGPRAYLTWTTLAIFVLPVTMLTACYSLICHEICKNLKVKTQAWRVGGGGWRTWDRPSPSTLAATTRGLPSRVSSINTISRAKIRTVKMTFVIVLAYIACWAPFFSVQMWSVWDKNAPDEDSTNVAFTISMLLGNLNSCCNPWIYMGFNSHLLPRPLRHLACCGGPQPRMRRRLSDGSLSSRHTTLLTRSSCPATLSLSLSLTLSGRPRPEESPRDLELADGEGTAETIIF
row,Structure (SMILES),IC50 [µM]
1,"CC(C)NC(=O)Cn1cc(-c2ccc(CCN3CCCCC3)cc2)nc1-c1cccc(Cl)c1 [Example A-01, 2-[2-(3-chlorophenyl)-4-{4-[2-(piperidin-1-yl)ethyl]phenyl}-1H-imidazol-1-yl]-N-(propan-2-yl)acetamide]",0.015
2,"CC(C)NC(=O)Cn1cc(-c2ccc(CCN3CC4(COC4)C3)cc2)nc1-c1cccc(Cl)c1 [Example A-03, 2-[2-(3-chlorophenyl)-4-{4-[2-(2-oxa-6-azaspiro[3.3]hept-6-yl)ethyl]phenyl}-1H-imidazol-1-yl]-N-(propan-2-yl)acetamide]",0.01 to 0.1
3,"CC(C)NC(=O)Cn1cc(-c2ccc(CCN3CCC(O)CC3)cc2)nc1-c1cccc(Cl)c1 [Example A-04, 2-[2-(3-chlorophenyl)-4-{4-[2-(4-hydroxypiperidin-1-yl)ethyl]phenyl}-1H-imidazol-1-yl]-N-(propan-2-yl)acetamide]",0.01 to 0.1
4,"CC(C)NC(=O)Cn1cc(-c2ccc(CCN3CCCC(O)C3)cc2)nc1-c1cccc(Cl)c1 (stereo not shown) [Example A-05, 2-[2-(3-chlorophenyl)-4-{4-[2-(3-hydroxypiperidin-1-yl)ethyl]phenyl}-1H-imidazol-1-yl]-N-(propan-2-yl)acetamide]",0.01 to 0.1
5,"CC(C)NC(=O)Cn1cc(-c2ccc(CCN3CCC(O)C3)cc2)nc1-c1cccc(Cl)c1 (stereo not shown) [Example A-06, 2-[2-(3-chlorophenyl)-4-{4-[2-(3-hydroxypyrrolidin-1-yl)ethyl]phenyl}-1H-imidazol-1-yl]-N-(propan-2-yl)acetamide]",0.01 to 0.1
6,"CC(C)NC(=O)Cn1cc(-c2ccc(CCN3CCC(CO)C3)cc2)nc1-c1cccc(Cl)c1 (stereo not shown) [Example A-07, 2-[2-(3-chlorophenyl)-4-(4-{2-[3-(hydroxymethyl)pyrrolidin-1-yl]ethyl}phenyl)-1H-imidazol-1-yl]-N-(propan-2-yl)acetamide]",0.018
7,"CC(C)NC(=O)Cn1cc(-c2ccc(CCN3C4CCC3COC4)cc2)nc1-c1cccc(Cl)c1 [Example A-08, 2-[2-(3-chlorophenyl)-4-{4-[2-(3-oxa-8-azabicyclo[3.2.1]oct-8-yl)ethyl]phenyl}-1H-imidazol-1-yl]-N-(propan-2-yl)acetamide]",0.00082
8,"COc1cc(-c2nc(-c3ccc(CCN4CCCCC4)cc3)cn2CC(=O)NC(C)C)ccc1F [Example A-09, 2-[2-(4-fluoro-3-methoxyphenyl)-4-{4-[2-(piperidin-1-yl)ethyl]phenyl}-1H-imidazol-1-yl]-N-(propan-2-yl)acetamide]",0.016
9,"COc1cc(-c2nc(-c3ccc(CCN4CCOCC4)cc3)cn2CC(=O)NC(C)C)ccc1F [Example A-10, 2-[2-(4-fluoro-3-methoxyphenyl)-4-{4-[2-(morpholin-4-yl)ethyl]phenyl}1H-imidazol-1-yl]-N-(propan-2-yl)acetamide]",0.0037
10,"COc1cc(-c2nc(-c3ccc(CCN4CCCC4)cc3)cn2CC(=O)NC(C)C)ccc1F [Example A-11, 2-[2-(4-fluoro-3-methoxyphenyl)-4-{4-[2-(pyrrolidin-1-yl)ethyl]phenyl}-1H-imidazol-1-yl]-N-(propan-2-yl)acetamide]",0.01
11,"COc1cc(-c2nc(-c3ccc(CCN4CCC[C@H]4C)cc3)cn2CC(=O)NC(C)C)ccc1F [Example A-12, 2-[2-(4-fluoro-3-methoxyphenyl)-4-(4-{2-[(2R)-2-methylpyrrolidin-1-yl]ethyl}phenyl)-1H-imidazol-1-yl]-N-(propan-2-yl)acetamide]",0.017
12,"COc1cc(-c2nc(-c3ccc(CCN4CCCC(C#N)C4)cc3)cn2CC(=O)NC(C)C)ccc1F (stereo not shown) [Example A-13, 2-[4-{4-[2-(3-cyanopiperidin-1-yl)ethyl]phenyl}-2-(4-fluoro-3-methoxyphenyl)-1H-imidazol-1-yl]-N-(propan-2-yl)acetamide]",0.01 to 0.1
13,"COc1cc(-c2nc(-c3ccc(CCN4CCC(C#N)CC4)cc3)cn2CC(=O)NC(C)C)ccc1F [Example A-14, 2-[4-{4-[2-(4-cyanopiperidin-1-yl)ethyl]phenyl}-2-(4-fluoro-3-methoxyphenyl)-1H-imidazol-1-yl]-N-(propan-2-yl)acetamide]",0.1 to 1
14,"COc1cc(-c2nc(-c3ccc(CCN4C5CCC4CC(O)C5)cc3)cn2CC(=O)NC(C)C)ccc1F (stereo not shown) [Example A-15, 2-[2-(4-fluoro-3-methoxyphenyl)-4-{4-[2-(3-hydroxy-8-azabicyclo[3.2.1]oct-8-yl)ethyl]phenyl}-1H-imidazol-1-yl]-N-(propan-2-yl)acetamide]",0.0024
15,"COc1cc(-c2nc(-c3ccc(CCN4CC(C#N)C4)cc3)cn2CC(=O)NC(C)C)ccc1F [Example A-16, 2-[4-{4-[2-(3-cyanoazetidin-1-yl)ethyl]phenyl}-2-(4-fluoro-3-methoxyphenyl)-1H-imidazol-1-yl]-N-(propan-2-yl)acetamide]",0.1 to 1
16,"COc1cc(-c2nc(-c3ccc(CCN4CCC(OC)C4)cc3)cn2CC(=O)NC(C)C)ccc1F (stereo not shown) [Example A-17, 2-[2-(4-fluoro-3-methoxyphenyl)-4-{4-[2-(3-methoxypyrrolidin-1-yl)ethyl]phenyl}-1H-imidazol-1-yl]-N-(propan-2-yl)acetamide]",0.01 to 0.1
17,"COc1cc(-c2nc(-c3ccc(CCN4CCCC(OC)C4)cc3)cn2CC(=O)NC(C)C)ccc1F (stereo not shown) [Example A-18, 2-[2-(4-fluoro-3-methoxyphenyl)-4-{4-[2-(3-methoxypiperidin-1-yl)ethyl]phenyl}-1H-imidazol-1-yl]-N-(propan-2-yl)acetamide]",0.019
18,"COc1cc(-c2nc(-c3ccc(CCN4CC(F)C4)cc3)cn2CC(=O)NC(C)C)ccc1F [Example A-19, 2-[4-{4-[2-(3-fluoroazetidin-1-yl)ethyl]phenyl}-2-(4-fluoro-3-methoxyphenyl)-1H-imidazol-1-yl]-N-(propan-2-yl)acetamide]",0.01 to 0.1
19,"COc1cc(-c2nc(-c3ccc(CCN4CC(C)OC(C)C4)cc3)cn2CC(=O)NC(C)C)ccc1F (stereo not shown) [Example A-20, 2-[4-{4-[2-(2,6-dimethylmorpholin-4-yl)ethyl]phenyl}-2-(4-fluoro-3-methoxyphenyl)-1H-imidazol-1-yl]-N-(propan-2-yl)acetamide]",0.012
20,"COc1cc(-c2nc(-c3ccc(CCN4CCC(C)C4)cc3)cn2CC(=O)NC(C)C)ccc1F (stereo not shown) [Example A-21, 2-[2-(4-fluoro-3-methoxyphenyl)-4-{4-[2-(3-methylpyrrolidin-1-yl)ethyl]phenyl}-1H-imidazol-1-yl]-N-(propan-2-yl)acetamide]",0.0032
21,"COc1cc(-c2nc(-c3ccc(CCN4C5CCC4COC5)cc3)cn2CC(=O)NC(C)C)ccc1F [Example A-22, 2-[2-(4-fluoro-3-methoxyphenyl)-4-{4-[2-(3-oxa-8-azabicyclo[3.2.1]oct-8-yl)ethyl]phenyl}-1H-imidazol-1-yl]-N-(propan-2-yl)acetamide]",0.0026
22,"COc1cc(-c2nc(-c3ccc(CCN4CCCOCC4)cc3)cn2CC(=O)NC(C)C)ccc1F [Example A-23, 2-[2-(4-fluoro-3-methoxyphenyl)-4-{4-[2-(1,4-oxazepan-4-yl)ethyl]phenyl}-1H-imidazol-1-yl]-N-(propan-2-yl)acetamide]",0.011
23,"COc1cc(-c2nc(-c3ccc(CCN4CCC(OC)CC4)cc3)cn2CC(=O)NC(C)C)ccc1F [Example A-24, 2-[2-(4-fluoro-3-methoxyphenyl)-4-{4-[2-(4-methoxypiperidin-1-yl)ethyl]phenyl}-1H-imidazol-1-yl]-N-(propan-2-yl)acetamide]",0.01 to 0.1
24,"COc1cc(-c2nc(-c3ccc(CCN4C(C)COCC4C)cc3)cn2CC(=O)NC(C)C)ccc1F (stereo not shown) [Example A-25, 2-[4-{4-[2-(3,5-dimethylmorpholin-4-yl)ethyl]phenyl}-2-(4-fluoro-3-methoxyphenyl)-1H-imidazol-1-yl]-N-(propan-2-yl)acetamide]",0.014
25,"CC(C)NC(=O)Cn1cc(-c2ccc(CCN3CCOCC3)cn2)nc1-c1cccc(Cl)c1 [Example A-26, 2-[2-(3-chlorophenyl)-4-{5-[2-(morpholin-4-yl)ethyl]pyridin-2-yl}-1H-imidazol-1-yl]-N-(propan-2-yl)acetamide]",0.0034
26,"CC(C)NC(=O)Cn1cc(-c2ccc(CCN3C4CCC3COC4)cn2)nc1-c1cccc(Cl)c1 [Example A-27, 2-[2-(3-chlorophenyl)-4-{5-[2-(3-oxa-8-azabicyclo[3.2.1]oct-8-yl)ethyl]pyridin-2-yl}-1H-imidazol-1-yl]-N-(propan-2-yl)acetamide]",0.0036
27,"COc1cccc(-c2nc(-c3ccc(CCN4CCCCC4)cc3)cn2CC(=O)NC(C)C)n1 [Example A-28, 2-[2-(6-methoxypyridin-2-yl)-4-{4-[2-(piperidin-1-yl)ethyl]phenyl}-1H-imidazol-1-yl]-N-(propan-2-yl)acetamide]",0.01 to 0.1
28,"COc1cccc(-c2nc(-c3ccc(CCN4CCOCC4)cc3)cn2CC(=O)NC(C)C)n1 [Example A-29, 2-[2-(6-methoxypyridin-2-yl)-4-{4-[2-(morpholin-4-yl)ethyl]phenyl}-1H-imidazol-1-yl]-N-(propan-2-yl)acetamide]",0.027
